Results reported in patent US12673140B2, “Bladder, ureter, kidney, urethra, prostate and catheter anti-microbial, and biofilm prevention, reduction and treatment” (UHI, LLC, priority 2019, dated 2026).

Tested on: S. aureus
Experiment: MIC, CLSI microdilution
Assay type: cell-based
Conditions: 2% solution serially diluted

Q: Which “Chlorhexidine MIC” value does the source give for `[H]/N=C(\N/C(=N/[H])NCCCCCCNC(=N)NC(=N)Nc1ccc(Cl)cc1)Nc1ccc(Cl)cc1` [Chlorhexidine, chlorhexidine gluconate] here?
A: 19.6 μg/ml chlorhexidine
